{"source": "patent US7833939B2", "about": "“Herbicide compositions” (Kumiai Chemical Industry Co., Ltd., priority 2002, dated 2010)", "key": {"[1]": {"tested_on": "corn", "test": "Herbicidal effect by upland field soil treatment (Application Example 2): phytotoxicity to corn", "assay_type": "in vivo", "conditions": "30th day from treatment", "method": "(§1) Test for Herbicidal Effect by Upland Field Soil Treatment\n(§2) An upland field soil was filled in a plastic pot of 11 cm each of length, width and depth. Seeds of corn and velvetleaf (Abutilon theophrasti Medic) were sowed, followed by covering with the same soil. The wettable powder produced in accordance with Formulation 1 was weighed so as to provide active ingredients in a predetermined amount, and was diluted with water and sprayed uniformly on the soil surface using a small sprayer, in an amount of 100 liters per […]. Then, growing was made in a greenhouse, and the herbicidal effect of each wettable powder was examined at the 30th day from the treatment in accordance with the standard shown in Table 15."}, "[2]": {"tested_on": "velvetleaf (Abutilon theophrasti Medic)", "test": "Herbicidal effect by upland field soil treatment (Application Example 2): velvetleaf", "assay_type": "in vivo", "conditions": "30th day from treatment", "method": "as §1, §2"}, "[3]": {"tested_on": "corn", "test": "Herbicidal effect by upland field soil treatment (Application Example 1): phytotoxicity to corn", "assay_type": "in vivo", "conditions": "30th day from treatment", "method": "as §1\nas §2, with “corn, green foxtail (Setaria viridis)” for “corn”, “common lambsquarters (Chenopodium album L.)” for “velvetleaf (Abutilon theophrasti Medic)”"}, "[4]": {"tested_on": "green foxtail (Setaria viridis)", "test": "Herbicidal effect by upland field soil treatment (Application Example 1): green foxtail", "assay_type": "in vivo", "conditions": "30th day from treatment", "method": "as §1\nas §2, with “corn, green foxtail (Setaria viridis)” for “corn”, “common lambsquarters (Chenopodium album L.)” for “velvetleaf (Abutilon theophrasti Medic)”"}, "[5]": {"tested_on": "common lambsquarters (Chenopodium album L.)", "test": "Herbicidal effect by upland field soil treatment (Application Example 1): common lambsquarters", "assay_type": "in vivo", "conditions": "30th day from treatment", "method": "as §1\nas §2, with “corn, green foxtail (Setaria viridis)” for “corn”, “common lambsquarters (Chenopodium album L.)” for “velvetleaf (Abutilon theophrasti Medic)”"}, "[6]": {"conditions": "16 g a.i./ha, upland field soil treatment"}, "[7]": {"conditions": "16 g a.i./ha, soil surface spray of wettable powder, index of Table 15"}, "[8]": {"conditions": "32 g a.i./ha, upland field soil treatment"}}, "data": [{"compound": "CCNc1nc(Cl)nc(NC(C)C)n1", "note": "[Atrazine]", "values": [{"measurement": "Corn", "setting": "[1]; 125 g a.i./ha", "value": "0 (Herbicidal effect or phytotoxicity of from 0 to 9%)"}, {"measurement": "Velvetleaf (Abutilon theophrasti Medic)", "setting": "[2]; 125 g a.i./ha", "value": "1 (Herbicidal effect or phytotoxicity of from 10 to 19%)"}]}, {"compound": "CCn1nc(Cl)c(CS(=O)(=O)C2=NOC(C)(C)C2)c1Cl", "note": "[Compound 3-0017, 3-(3,5-dichloro-1-ethyl-1H-pyrazol-4-ylmethylsulfonyl)-5,5-dimethyl-2-isoxazoline]", "values": [{"measurement": "Herbicidal effect Corn", "setting": "[3]; [6]", "value": "0 (Herbicidal effect or phytotoxicity of from 0 to 9%)"}, {"measurement": "Herbicidal effect Green foxtail (Sataria viridis)", "setting": "[4]; [6]", "value": "3 (Herbicidal effect or phytotoxicity of from 30 to 39%)"}, {"measurement": "Herbicidal effect Common lambsquarter (Chenopodium album L.)", "setting": "[5]; [6]", "value": "3 (Herbicidal effect or phytotoxicity of from 30 to 39%)"}, {"measurement": "melting point", "value": "105 to 107", "unit": "°C"}]}, {"compound": "Cn1nc(C(F)F)c(CS(=O)(=O)C2=NOC(C)(C)C2)c1Cl", "note": "[Compound 3-0018, 3-(5-chloro-3-difluoromethyl-1-methyl-1H-pyrazol-4-ylmethylsulfonyl)-5,5-dimethyl-2-isoxazoline]", "values": [{"measurement": "Herbicidal effect Corn", "setting": "[3]; [6]", "value": "0 (Herbicidal effect or phytotoxicity of from 0 to 9%)"}, {"measurement": "Herbicidal effect Green foxtail (Sataria viridis)", "setting": "[4]; [6]", "value": "3 (Herbicidal effect or phytotoxicity of from 30 to 39%)"}, {"measurement": "Herbicidal effect Common lambsquarter (Chenopodium album L.)", "setting": "[5]; [6]", "value": "3 (Herbicidal effect or phytotoxicity of from 30 to 39%)"}, {"measurement": "melting point", "value": "78 to 79", "unit": "°C"}]}, {"compound": "Cn1nc(C(F)(F)F)c(CS(=O)(=O)C2=NOC(C)(C)C2)c1Cl", "note": "[Compound 3-0039, 3-(5-chloro-1-methyl-3-trifluoromethylpyrazol-4-ylmethanesulfonyl)-5,5-dimethyl-2-isoxazoline]", "values": [{"measurement": "Herbicidal effect Corn", "setting": "[3]; [7]", "value": "0 (Herbicidal effect or phytotoxicity of from 0 to 9%)"}, {"measurement": "Herbicidal effect Green foxtail (Sataria viridis)", "setting": "[4]; [7]", "value": "3 (Herbicidal effect or phytotoxicity of from 30 to 39%)"}, {"measurement": "Herbicidal effect Common lambsquarter (Chenopodium album L.)", "setting": "[5]; [7]", "value": "3 (Herbicidal effect or phytotoxicity of from 30 to 39%)"}, {"measurement": "melting point", "value": "115 to 116", "unit": "°C"}]}, {"compound": "Cn1nc(C(F)(F)F)c(CS(=O)(=O)C2=NOC(C)(C)C2)c1OC(F)F", "note": "[Compound 3-188]", "values": [{"measurement": "Corn", "setting": "[1]; 16 g a.i./ha", "value": "0 (Herbicidal effect or phytotoxicity of from 0 to 9%)"}, {"measurement": "Corn", "setting": "[1]; 32 g a.i./ha", "value": "0 (Herbicidal effect or phytotoxicity of from 0 to 9%)"}, {"measurement": "Velvetleaf (Abutilon theophrasti Medic)", "setting": "[2]; 16 g a.i./ha", "value": "2 (Herbicidal effect or phytotoxicity of from 20 to 29%)"}, {"measurement": "Velvetleaf (Abutilon theophrasti Medic)", "setting": "[2]; 32 g a.i./ha", "value": "2 (Herbicidal effect or phytotoxicity of from 20 to 29%)"}]}, {"compound": "CCn1nc(C(F)(F)F)c(CS(=O)(=O)C2=NOC(C)(C)C2)c1OC(F)F", "note": "[Compound 3-0190, 3-(5-difluoromethoxy-1-ethyl-3-trifluoromethyl-1H-pyrazol-4-ylmethanesulfonyl)-5,5-dimethyl-2-isoxazoline]", "values": [{"measurement": "Herbicidal effect Corn", "setting": "[3]; [7]", "value": "0 (Herbicidal effect or phytotoxicity of from 0 to 9%)"}, {"measurement": "Herbicidal effect Green foxtail (Sataria viridis)", "setting": "[4]; [7]", "value": "3 (Herbicidal effect or phytotoxicity of from 30 to 39%)"}, {"measurement": "Herbicidal effect Common lambsquarter (Chenopodium album L.)", "setting": "[5]; [7]", "value": "1 (Herbicidal effect or phytotoxicity of from 10 to 19%)"}, {"measurement": "melting point", "value": "98 to 100", "unit": "°C"}]}, {"compound": "Cc1onc(C(F)(F)F)c1CS(=O)(=O)C1=NOC(C)(C)C1", "note": "[Compound 4-0001, 5,5-dimethyl-3-(5-methyl-3-trifluoromethylisoxazol-4-ylmethylsulfonyl)-2-isoxazoline]", "values": [{"measurement": "Herbicidal effect Corn", "setting": "[3]; [8]", "value": "0 (Herbicidal effect or phytotoxicity of from 0 to 9%)"}, {"measurement": "Herbicidal effect Green foxtail (Sataria viridis)", "setting": "[4]; [8]", "value": "2 (Herbicidal effect or phytotoxicity of from 20 to 29%)"}, {"measurement": "Herbicidal effect Common lambsquarter (Chenopodium album L.)", "setting": "[5]; [8]", "value": "1 (Herbicidal effect or phytotoxicity of from 10 to 19%)"}, {"measurement": "melting point", "value": "135 to 136", "unit": "°C"}]}]}
